Values quoted from earlier work in patent US20150313913A1, “POSITIVE ALLOSTERIC MODULATORS OF THE GABA-A RECEPTOR IN THE TREATMENT OF AUTISM” (UNIVERSITY OF WASHINGTON THROUGH ITS CENTER FOR …, priority 2013, published 2015).
Read-outs that look alike come from different tables or passages of the source.

What was measured:
[1] = cited from earlier work; for Dose in humans for anti-anxiety, anti-convulsive, or sedative effects (dose range, typical or average dose): Table 1, values not marked *
GABA-A receptor = conditions: cited from earlier work; for Effect at GABA-A receptor: Table 1, exemplary benzodiazepines
[2] = Table 4, exemplary non-BDZ GABA-A enhancers

| SMILES | Effect at GABA-A receptor (GABA-A receptor) | Dose in humans for anti-anxiety, anti-convulsive, or sedative effects: equivalent dose to 10 mg diazepam ([1]; Table 1, values marked *) [mg] | further results |
| --- | --- | --- | --- |
| Cc1nnc2n1-c1ccc(Cl)cc1C(c1ccccc1)=NC2 [Alprazolam] | Full agonist |  | Dose in humans for anti-anxiety, anti-convulsive, or sedative effects (dose range, typical or average dose) [1]: dose range of 0.5 to 3.0 mg |
| CN(C(=O)CNC(=O)[C@@H](N)CCCCN)c1ccc(Cl)cc1C(=O)c1ccccc1 [Avizafone] | Full agonist |  | Dose in humans for anti-anxiety, anti-convulsive, or sedative effects ([1]; Table 1): 3.5 mg/kg |
| CC(C)(C)OC(=O)c1ncn2c1[C@@H]1CCCN1C(=O)c1c(Br)cccc1-2 [Bretazenil] | Partial Agonist High potency | 0.5 |  |
| O=C1CN=C(c2ccccn2)c2cc(Br)ccc2N1 [Bromazepam] | Agonist | 5 to 6 |  |
| Cc1nnc2n1-c1sc(Br)cc1C(c1ccccc1Cl)=NC2 [Brotizolam] | Agonist | 0.25 | Dose in humans, sedative ([1]; Table 1, Sedative): 0.125 to 25 mg; Dose in humans, anti-anxiety ([1]; Table 1, anti-anxiety): 80 to 100 mg |
| CNC1=Nc2ccc(Cl)cc2C(c2ccccc2)=[N+]([O-])C1 [Chlordiazepoxide] | Agonist Long- acting | 25 |  |
| N#CCCN1C(=O)C(O)N=C(c2ccccc2F)c2cc(Cl)ccc21 (stereo not shown) [Cinolazepam] | Agonist | 40 |  |
| O=C(O)C1N=C(c2ccccc2)c2cc(Cl)ccc2NC1=O (stereo not shown) [Clorazepate] | Partial Agonist (Prodrug) | 15 | Dose in humans for anti-anxiety, anti-convulsive, or sedative effects, per day ([1]; Table 1, typical daily dose): 15 to 60 mg/day |
| CCc1cc2c(s1)N(C)C(=O)CN=C2c1ccccc1Cl [Clotiazepam] | Full agonist | 5 to 10 |  |
| O=C1CN2CCOC2(c2ccccc2Cl)c2cc(Cl)ccc2N1 (stereo not shown) [Cloxazolam] | Agonist (Prodrug) | 1 |  |
| O=C1CN=C(c2ccccc2Cl)c2cc(Cl)ccc2N1 [Delorazepam] | Agonist | 1 |  |
| CN1C(=O)CN=C(c2ccccc2)c2cc(Cl)ccc21 [Diazepam] | Agonist Long- acting | 10 | dose typically administered to achieve an anxiolytic or anti-convulsive effect ([1]; 2-4 times daily): 2 to 10 mg |
| Clc1ccc2c(c1)C(c1ccccc1)=NCc1nncn1-2 [Estazolam] | Agonist | 2 |  |
| CN1CCN(C(=O)O[C@H]2c3nccnc3C(=O)N2c2ccc(Cl)cn2)CC1 [Eszopiclone] |  |  | Dose in humans for anti-anxiety, anti-convulsive, or sedative effects: equivalent dose to 10 mg diazepam ([1]; Table 4, values marked *): 3 mg; Effect at GABA receptor (GABA-A receptor; [2]): Agonist |
| CCOC(=O)C1N=C(c2ccccc2F)c2cc(Cl)ccc2NC1=O (stereo not shown) [Ethyl loflazepate] | Agonist (Prodrug) | 2 |  |
| CCc1cc2c(s1)-n1c(C)nnc1CN=C2c1ccccc1Cl [Etizolam] | Full agonist | 0.5 to 1 |  |
| CN1C(=O)CN=C(c2ccccc2F)c2cc([N+](=O)[O-])ccc21 [Flunitrazepam] | Agonist | 1 |  |
| CCN(CC)CCN1C(=O)CN=C(c2ccccc2F)c2cc(Cl)ccc21 [Flurazepam] | Partial agonist | 15 to 30 |  |
| O=C1CN=C(c2ccccc2F)c2cc(Cl)ccc2N1CC1CC1 [Flutoprazepam] | Agonist | 2 to 3 |  |
| CP(C)(=O)CN1C(=O)CN=C(c2ccccc2)c2cc(Cl)ccc21 [Fosazepam] | Agonist Low potency | 60 |  |
| O=C1CN=C(c2ccccc2)c2cc(Cl)ccc2N1CC(F)(F)F [Halazepam] | Agonist | 20 to 40 |  |
| CC1=CC(=O)N2CC(=O)N(C)c3ccc(Cl)cc3C2(c2ccccc2)O1 (stereo not shown) [Ketazolam] | Agonist | 15 to 30 |  |
| CN1CCN(/C=C2\N=C3CN=C(c4ccccc4Cl)c4cc([N+](=O)[O-])ccc4N3C2=O)CC1 [Loprazolam] | Agonist | 2 | Dose in humans for anti-anxiety, anti-convulsive, or sedative effects (dose range, typical or average dose) [1]: 1 to 2 mg |
| O=C1Nc2ccc(Cl)cc2C(c2ccccc2Cl)=NC1O (stereo not shown) [Lorazepam] | Agonist High- potency | 1 |  |
| CN1C(=O)C(O)N=C(c2ccccc2Cl)c2cc(Cl)ccc21 (stereo not shown) [Lormetazepam] | Agonist Short- acting | 1.5 |  |
| CN1CCN=C(c2ccccc2)c2cc(Cl)ccc21 [Medazepam] | Agonist Long- acting | 10 |  |

| SMILES | Effect at GABA-A receptor (GABA-A receptor) | Dose in humans for anti-anxiety, anti-convulsive, or sedative effects: equivalent dose to 10 mg diazepam ([1]; Table 1, values marked *) [mg] | further results |
| --- | --- | --- | --- |
| Cc1ncc2n1-c1ccc(Cl)cc1C(c1ccccc1F)=NC2 [Midazolam] | Agonist Short- acting | 7.5 |  |
| CN1C(=O)CN=C(c2ccccc2)c2cc([N+](=O)[O-])ccc21 [Nimetazepam] | Agonist | 5 |  |
| O=C1CN=C(c2ccccc2)c2cc([N+](=O)[O-])ccc2N1 [Nitrazepam] | Full agonist Long- acting | 10 |  |
| O=C1CN=C(c2ccccc2)c2cc(Cl)ccc2N1 [Nordazepam] | Partial agonist | 10 |  |
| O=C1Nc2ccc(Cl)cc2C(c2ccccc2)=NC1O (stereo not shown) [Oxazepam] | Agonist Short- acting | 20 | Dose in humans, mild/moderate anxiety ([1]; Table 1, 1 to 2 times daily): 10 to 15 mg; Dose in humans, severe anxiety ([1]; Table 1, 3 to 4 times daily): 15 to 30 mg; Dose in humans, symptoms related to alcohol withdrawal ([1]; Table 1, 3 to 4 times daily): 15 to 30 mg |
| O=C1CN=C(c2ccccc2Cl)c2cc(Br)ccc2N1 [Phenazepam] | Agonist | 1 | Dose in humans for anti-anxiety, anti-convulsive, or sedative effects (dose range, typical or average dose) [1]: 0.5 mg |
| C#CCN1C(=O)CN=C(c2ccccc2)c2cc(Cl)ccc21 [Pinazepam] | Agonist | 20 |  |
| C#Cc1ccc2c(c1)C(c1ccccc1F)=N[C@H](C)c1c(C(=O)OCC)ncn1-2 [SH-053-R-CH3-2′F] | Agonist |  |  |
| Cn1c2ccc(F)cc2c2c(C(=O)N3CCCC3)cn(-c3ccccc3)c(=O)c21 [SL-651,498] |  |  | Effect at GABA receptor (GABA-A receptor; Table 2, exemplary SS-PAMs): Full agonist α2,3 selective |
| CC(C)(C)C(O)/C=C/c1ccc2c(c1)OCO2 (stereo not shown) [Stiripentol] |  |  | Dose in humans for anti-anxiety, anti-convulsive, or sedative effects ([1]; Table 4): 50-100 mg/kg/day (max daily dose 4 g) |
| CN1C(=S)CN=C(c2ccccc2)c2cc(Cl)ccc21 [Sulazepam] | Agonist |  |  |
| CCC(=O)N1CCN(C(=O)O[C@H]2C3SCCSC3C(=O)N2c2ccc3ccc(Cl)nc3n2)CC1 (stereo partly shown) [Suproclone] |  |  | Effect at GABA receptor (GABA-A receptor; [2]): Agonist |
| CN1CCN(C(=O)OC2C3=C(SCCS3)C(=O)N2c2ccc3ccc(Cl)nc3n2)CC1 (stereo not shown) [Suriclone] |  |  | Effect at GABA receptor (GABA-A receptor; [2]): Agonist |
| CC(C)(O)c1ccn2c(-c3ccc(F)c(-c4ccc(F)cc4C#N)c3)cnc2c1F [TP-003] |  |  | Effect at GABA receptor (GABA-A receptor; Table 2, exemplary SS-PAMs): Partial agonist α2,3,5 subtype selective binding and α3 selective efficacy |
| Cn1ncnc1COc1nn2c(-c3ccccc3)nnc2cc1C1CCC1 [TP-13] |  |  | Effect at GABA receptor (GABA-A receptor; Table 2, exemplary SS-PAMs): Partial agonist at α2,3 subunits |
| CCn1ncnc1COc1nn2c(-c3ccccc3F)nnc2cc1C(C)(C)C [TPA-023, 7-(1,1-dimethylethyl)-6-(2-ethyl-2H-1,2,4-triazol-3-ylmethoxy)-3-(2-fluorophenyl)-1,2,4-triazolo[4,3-b]pyridazine] |  |  | Effect at GABA receptor (GABA-A receptor; Table 2, exemplary SS-PAMs): Partial agonist at α2,3 subunits Antagonist at α1,5 subunits |
| COc1nc2nc(-c3noc(C)n3)cn2c2c1CCCC2 [Taniplon] |  |  | Effect at GABA receptor (GABA-A receptor; [2]): Agonist |
| CN1C(=O)CC(=O)N(c2ccccc2)c2cc(C(F)(F)F)ccc21 [Triflubazam] | Agonist |  |  |
| Cc1cc2c(N3CCCC3)nc(N3CCCC3)nc2n1C [U-89843A] |  |  | Effect at GABA receptor (GABA-A receptor; Table 2, exemplary SS-PAMs): Agonist at α1,3,6 subunits |
| Clc1ccc2c(c1)C1=NCCN1c1c(-c3noc(C4CC4)n3)ncn1-2 [U-90042] |  |  | Effect at GABA receptor (GABA-A receptor; Table 2, exemplary SS-PAMs): Agonist at α1,3,6 subunits |
| C=CCONC1=Nc2ccc(Cl)cc2C(c2ccccc2Cl)=NC1 [Uldazepam] | Agonist |  |  |
| O=c1cc2c(nn1-c1ccc(Cl)cc1)-c1ccccc1[S+]([O-])CC2 (stereo not shown) [Y-23684] |  |  | Effect at GABA receptor (GABA-A receptor; [2]): Partial agonist Non- selective |
| CCOC(=O)c1ncc2[nH]c3ccc(OCc4ccccc4)cc3c2c1COC [ZK-93423] |  |  | Effect at GABA receptor (GABA-A receptor; [2]): Agonist |
| Clc1ccc2c(n1)C(c1ccccc1Cl)=NCc1nncn1-2 [Zapizolam] | Agonist |  |  |
| Cc1nn(C)c2c1C(c1ccccc1F)=NCC(=O)N2C [Zolazepam] | Agonist |  |  |
| Cc1nn(C)c2c1N(c1ccccc1)C(=O)CC(=O)N2C [Zomebazam] | Agonist |  |  |
